Experimental data as given in US8669065B1, “Methods for identifying molecules that modulate lipid binding sites of ion channels” (priority 2011, dated 2014).
≈ marks a conversion by molar mass, not a printed value.

Experiment: physchem
Conditions: water
Source text: Most native lipids have long fatty acyl side chains rendering them insoluble and difficult to work with in an aqueous environment.

- solubility: 50 mM (≈ 21.2 mg/mL)
SMILES: CCCCCCCC(=O)OC[C@H](COP(=O)(O)O)OC(=O)CCCCCCC [C8-PA]
